Columns and labels:
Type in all cases: cell-based
[1] = molecular target: Ba/F3 EGFR-V769_D770insASV (Homo sapiens, UniProt P00533, DUP767-769, cells depend on it); assay: Cell proliferation assay (CellTiter-Glo), Ba/F3 EGFR-V769_D770insASV cells; settings: 72 hrs, CTG assay, * = average of multiple measurements, read-out: Ba/F3 EGFR-V769_D770insASV (nM), IC50 of cell proliferation
Method in brief: (§1)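 Cells seeded overnight, then treated in triplicate with 9 concentrations (3.16-fold dilutions; 0.1% DMSO final) for 72 h at 37 °C, 5% CO2. Viability by CellTiter-Glo luminescence, normalised to cell and medium controls; IC50 (nM) from nonlinear sigmoidal fit.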

[2] = molecular target: Ba/F3 EGFR-D770-N771ins_SVD (Homo sapiens, UniProt P00533, DUP768-770, cells depend on it); assay: Cell proliferation assay (CellTiter-Glo), Ba/F3 EGFR-D770-N771ins_SVD cells; settings: 72 hrs, CTG assay, * = average of multiple measurements, read-out: Ba/F3 EGFR-D770-N771ins_SVD (nM), IC50 of cell proliferation
Method in brief: as §1

A431 (EGFR-WT) = assay: Cell proliferation assay (CellTiter-Glo), A431 cells; settings: Homo sapiens, A-431, 72 hrs, CTG assay, * = average of multiple measurements
Protocol: I. Cell proliferation assay (i) Reagents and consumables • Fetal bovine serum (FBS) (GBICO, Cat #10099-141); • CellTiter-Glo® Luminescent Cell Viability Assay Kit (Promega, Cat #G7572); • Black transparent flat-bottomed 96-well plate (Corning®, Cat #3603).
• SpectraMax Multi-Label Microplate Detector MD, 2104-0010A; • CO2 incubator, Thermo Scientific 3100 Series; • Biosafety cabinet, Thermo Scientific, 1300 Series type A2; • Inverted microscope, Olympus, CKX41SF; • Siemens refrigerator KK25E76TI. (iii) Cell lines and culture conditions
(iv) Experimental procedures 1. Cell culture and seeding: • (1) Cells in the logarithmic growth phase were harvested, and counted using a platelet counter. Cell viability was detected by the trypan blue exclusion assay to ensure that the cell viability was above 90%. • (2) The cell concentration was adjusted to achieve the final density; and 90 μL of the cell suspension was added to the 96-well plate. • (3) The cells were incubated in the 96-well plate overnight at 37° C. in the presence of 5% CO2 with 95% humidity. 2. TO benchmark data: • (1) 10 μL of PBS was added to each well of the TO flat plate containing the cells. • (2) The CTG reagent was thawed, and the cell plate was equilibrated to room temperature for 30 min. • (3) An equal volume of CTG solution was added to each well. • (4) The cells were shaken for 5 min on an orbital shaker for lysis. • (5) The cell plate was left at room temperature for 20 min to stabilize luminescent signals. • (6) The values of TO luminescent signals were read. 3. Compound dilution and addition • (1) According to the compound information table, a corresponding volume of DMSO was added to the corresponding compound powder to prepare a 10 mM stock solution. • (2) Compound solutions diluted at 1000 fold and 3.16 fold were prepared. • (3) The compound solution diluted at 1000 fold was diluted at 100 fold with PBS, to prepare the compound solutions at 10 fold in 9 concentrations, with the maximum concentration of […]; and the compound solution was diluted at 3.16 fold. 10 μL of medicament solution was added to each well of the seeded 96-well plate. Three replicate wells were provided for each concentration of the compound, and the final concentration of DMSO was 0.1%. • (4) Cells were placed in the 96-well plate containing the medicament and subsequently cultured for 72 hrs at 37° C. in the presence of 5% CO2 with 95% humidity, and then, CTG assay was conducted. 4. Reading of luminescent signals • (1) The CTG reagent was thawed, and the cell plate was equilibrated to room temperature for 30 min. • (2) An equal volume of CTG solution was added to each well. • (3) The cells were shaken for 5 min on an orbital shaker for lysis.
(4) The cell plate was left at room temperature for 20 min to stabilize the luminescent signals. • (5) Luminescent values were read. Data processing
The data were analyzed using software GraphPad Prism 7.0, and fitted by the nonlinear S-curve regression to obtain a dose-effect curve, based on which the IC50 value (unit: nM) was calculated, with the specific test results shown in Table 1.
Cell viability (%)=(Lum test medicament-Lum culture medium control)/(Lum cell control-Lum culture medium control)×100%.

Ba/F3 EGFR-D770-N771ins_SVD, sequence (P00533 with tags, fused parts or gaps DUP768-770): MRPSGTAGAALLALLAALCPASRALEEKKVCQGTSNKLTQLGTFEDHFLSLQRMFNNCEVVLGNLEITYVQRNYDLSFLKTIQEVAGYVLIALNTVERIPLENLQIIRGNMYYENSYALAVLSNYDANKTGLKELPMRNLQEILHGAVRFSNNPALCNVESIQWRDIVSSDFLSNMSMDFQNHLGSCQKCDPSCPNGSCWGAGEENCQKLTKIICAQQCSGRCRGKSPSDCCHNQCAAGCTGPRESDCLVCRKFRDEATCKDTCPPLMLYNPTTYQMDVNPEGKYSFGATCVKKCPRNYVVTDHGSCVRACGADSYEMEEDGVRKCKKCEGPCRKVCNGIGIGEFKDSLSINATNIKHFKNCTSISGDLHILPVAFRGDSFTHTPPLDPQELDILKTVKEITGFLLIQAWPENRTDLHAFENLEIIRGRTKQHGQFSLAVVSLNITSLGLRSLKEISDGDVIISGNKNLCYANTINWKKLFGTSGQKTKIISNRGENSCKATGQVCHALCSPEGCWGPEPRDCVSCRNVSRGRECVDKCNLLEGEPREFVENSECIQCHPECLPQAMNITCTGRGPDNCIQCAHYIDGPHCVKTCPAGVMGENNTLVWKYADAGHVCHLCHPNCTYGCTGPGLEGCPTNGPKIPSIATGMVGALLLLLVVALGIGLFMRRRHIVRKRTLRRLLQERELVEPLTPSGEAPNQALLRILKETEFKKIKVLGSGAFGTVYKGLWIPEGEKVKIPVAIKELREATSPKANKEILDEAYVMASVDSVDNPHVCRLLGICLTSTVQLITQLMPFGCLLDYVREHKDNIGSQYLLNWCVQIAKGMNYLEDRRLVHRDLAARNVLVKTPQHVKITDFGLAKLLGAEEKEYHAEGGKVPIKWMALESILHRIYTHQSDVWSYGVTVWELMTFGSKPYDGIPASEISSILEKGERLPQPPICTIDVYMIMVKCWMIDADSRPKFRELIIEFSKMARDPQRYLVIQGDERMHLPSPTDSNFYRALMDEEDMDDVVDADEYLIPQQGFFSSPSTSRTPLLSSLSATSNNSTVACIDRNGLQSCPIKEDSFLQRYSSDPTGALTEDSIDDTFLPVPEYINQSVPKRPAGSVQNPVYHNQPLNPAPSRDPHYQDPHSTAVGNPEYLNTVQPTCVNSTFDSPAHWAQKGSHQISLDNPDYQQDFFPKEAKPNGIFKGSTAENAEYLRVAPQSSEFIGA
Ba/F3 EGFR-V769_D770insASV, sequence (P00533 with tags, fused parts or gaps DUP767-769): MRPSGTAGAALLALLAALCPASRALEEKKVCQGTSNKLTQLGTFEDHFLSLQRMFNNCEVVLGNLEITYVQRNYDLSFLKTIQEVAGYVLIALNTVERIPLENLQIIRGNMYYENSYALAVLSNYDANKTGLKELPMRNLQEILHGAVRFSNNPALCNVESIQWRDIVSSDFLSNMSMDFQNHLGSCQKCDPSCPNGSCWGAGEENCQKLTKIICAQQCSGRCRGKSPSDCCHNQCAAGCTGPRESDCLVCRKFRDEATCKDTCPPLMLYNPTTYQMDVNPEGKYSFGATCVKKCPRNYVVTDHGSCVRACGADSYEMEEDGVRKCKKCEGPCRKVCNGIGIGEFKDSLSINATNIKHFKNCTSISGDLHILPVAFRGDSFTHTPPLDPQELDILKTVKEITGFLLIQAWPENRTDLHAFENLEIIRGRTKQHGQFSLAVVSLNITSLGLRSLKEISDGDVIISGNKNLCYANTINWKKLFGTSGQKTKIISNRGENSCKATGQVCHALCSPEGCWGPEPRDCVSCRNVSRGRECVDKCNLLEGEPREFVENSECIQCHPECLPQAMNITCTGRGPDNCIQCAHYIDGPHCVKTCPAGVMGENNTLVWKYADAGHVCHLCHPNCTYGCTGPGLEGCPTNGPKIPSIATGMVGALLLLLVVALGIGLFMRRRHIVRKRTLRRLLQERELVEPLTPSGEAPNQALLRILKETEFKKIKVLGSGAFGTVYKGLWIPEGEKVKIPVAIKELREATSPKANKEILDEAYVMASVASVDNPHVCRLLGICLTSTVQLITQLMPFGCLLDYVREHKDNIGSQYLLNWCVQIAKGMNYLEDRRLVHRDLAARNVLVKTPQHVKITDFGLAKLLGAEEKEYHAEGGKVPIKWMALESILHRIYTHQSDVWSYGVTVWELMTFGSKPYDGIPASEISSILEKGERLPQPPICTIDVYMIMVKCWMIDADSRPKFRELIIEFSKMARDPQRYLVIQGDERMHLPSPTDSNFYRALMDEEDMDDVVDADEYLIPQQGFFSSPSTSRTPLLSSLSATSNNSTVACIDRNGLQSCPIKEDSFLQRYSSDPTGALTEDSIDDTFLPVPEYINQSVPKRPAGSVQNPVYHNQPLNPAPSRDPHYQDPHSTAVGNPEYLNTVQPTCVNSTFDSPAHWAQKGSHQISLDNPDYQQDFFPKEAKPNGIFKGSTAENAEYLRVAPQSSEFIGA

Structure (SMILES)	GI50 [1] [nM]	GI50 [2] [nM]	IC50 (A431 (EGFR-WT)) [nM]
C#Cc1ccc2c(n1)C(C)(C)CN2c1ccnc(Nc2cc(NC(=O)C=C)c(N(C)CCN(C)C)cc2OC)n1 [Example 54, N-(2-((2-(dimethylamino)ethyl)(methyl)amino)-5-((4-(5-ethynyl-3,3-dimethyl-2,3-dihydro-1H-pyrrolo[3,2-b]pyridin-1-yl)pyrimidin-2-yl)amino)-4-methoxyphenyl)acrylamide]	30.6	17.8	72.9
C=CC(=O)Nc1cc(Nc2nccc(N3CC(C)(C)c4nc(C5CC5)ccc43)n2)c(OC)nc1N(C)CCN(C)C [Example 69, N-(5-((4-(5-cyclopropyl-3,3-dimethyl-2,3-dihydro-1H-pyrrolo [3,2-b]pyridin-1-yl)pyrimidin-2-yl)amino)-2-((2-(dimethylamino)ethyl) (methyl)amino)-6-methoxypyridin-3-yl)acrylamide]	53.7	24.8	317
C=CC(=O)Nc1cc(Nc2nccc(N3CC(C)(C)c4nc(C)ccc43)n2)c(OCC)cc1N(C)CCN(C)C [Example 24, N-(2-((2-(dimethylamino)ethyl) (methyl)amino)-4-ethoxy-5-((4-(3,3,5-trimethyl-2,3-dihydro-1H-pyrrolo[3,2-b]pyridin-1-yl)pyrimidin-2-yl)amino)phenyl)acrylamide]	44.3	25.4	850
C=CC(=O)Nc1cc(Nc2cc(N3CC(C)(C)c4ncccc43)ccn2)c(OC)cc1N(C)CCN(C)C [Example 1, N-(5-((4-(3,3-dimethyl-2,3-dihydro-1H-pyrrolo[3,2-b]pyridin-1-yl)pyridin-2-yl)amino)-2-((2-(dimethylamino)ethyl)(methyl)amino)-4-methoxyphenyl)acrylamide]	69.8	60.2	898
C=CC(=O)Nc1cc(Nc2nccc(N3CC4(CCCCC4)c4nc(C)ccc43)n2)c(OC)cc1N(C)CCN(C)C [Example 32, N-(2-((2-(dimethylamino)ethyl) (methyl)amino)-4-methoxy-5-((4-(5′-methylspiro[cyclohexane-1,3′-pyrrolo[3,2-b]pyridin]-1′(2′H)-yl)pyrimidin-2-yl)amino)phenyl)acrylamide]	95.8	35.7	53.7
C#Cc1ccc2c(n1)C(C)(C)CN2c1ccnc(Nc2cc(NC(=O)C=C)c(N(C)CCN(C)C)cc2OC(F)F)n1 [Example 68, N-(4-(difluoromethoxy)-2-((2-(dimethylamino)ethyl)(methyl)ami-no)-5-((4-(5-ethynyl-3,3-dimeth-yl-2,3-dihydro-1H-pyrrolo[3,2-b]pyridin-1-yl)pyrimidin-2-yl)amino)phenyl)acrylamide]	17.1	6.5	673
C=CC(=O)Nc1cc(Nc2cc(N3CC(C)(C)c4nc(C)c(C)cc43)ncn2)c(OC)cc1N(C)CCN(C)C [Example 28, N-(2-((2-(dimethylamino)ethyl) (methyl)amino)-4-methoxy-5-((6-(3,3,5,6-tetramethyl-2,3-dihydro-1H-pyrrolo[3,2-b]pyridin-1-yl)pyrimidin-4-yl)amino)phenyl)acrylamide]	37.1	28.9	26.3
C=CC(=O)Nc1cc(Nc2ncnc(N3CC(C)(C)c4nc(C)c(C)cc43)n2)c(OC(C)C)cc1N(C)CCN(C)C [Example 44, N-(2-((2-(dimethylamino)ethyl) (methyl)amino)-4-isopropoxy-5-((4-(3,3,5,6-tetramethyl-2,3-dihydro-1H-pyrrolo[3,2-b]pyridin-1-yl)-1,3,5-triazin-2-yl)amino)phenyl)acrylamide]	35	20.1	108
C=CC(=O)Nc1cc(Nc2nccc(N3CC(C)(C)c4ncccc43)n2)c(OC(F)F)cc1N(C)CCN(C)C [Example 45, N-(4-(difluoromethoxy)-5-((4-(3,3-dimethyl-2,3-dihydro-1H-pyrrolo [3,2-b]pyridin-1-yl)pyrimidin-2-yl)amino)-2-((2-(dimethylamino)ethyl)(methyl)amino)phenyl)acrylamide]	11.7	35.8	1070
C=CC(=O)Nc1cc(Nc2nccc(N3CC(C)(C)c4nc(C)c(C)cc43)n2)c(OC)cc1N(C)CCN(C)C [Example 21, N-(2-((2-(dimethylamino)ethyl) (methyl)amino)-4-methoxy-5-((4-(3,3,5,6-tetramethyl-2,3-dihydro-1H-pyrrolo[3,2-b]pyridin-1-yl)pyrimidin-2-yl)amino)phenyl)acrylamide]	19	3.8	80.4
C=CC(=O)Nc1cc(Nc2cc(N3CC(C)(C)c4ncccc43)ccn2)c(OC)cc1N1CCC[C@@H]1CN(C)C [Example 4, (R)-N-(5-((4-(3,3-dimethyl-2,3-dihydro-1H-pyrrolo[3,2-b]pyridin-1-yl)pyridin-2-yl)amino)-2-(2-((dimethylamino)methyl)pyrrolidin-1-yl)-4-methoxyphenyl)acrylamide]	83.1	47.2	964
C=CC(=O)Nc1cc(Nc2nccc(N3CC(C)(C)c4nc(-n5ccnc5)ccc43)n2)c(OC)cc1N(C)CCN(C)C [Example 51, N-(5-((4-(5-(1H-imidazole-1-yl)-3,3-dimethyl-2,3-dihydro-1H-pyrrolo[3,2-b]pyridin-1-yl)pyrimidin-2-yl)amino)-2-((2-(dimethylamino)ethyl)(methyl)amino)-4-methoxyphenyl)acrylamide]	123	34.8	620
C=CC(=O)Nc1cc(Nc2ncnc(N3CC(C)(C)c4ncc(C)cc43)n2)c(OC)cc1N(C)CCN(C)C [Example 16, N-(2-((2-(dimethylamino)ethyl) (methyl)amino)-4-methoxy-5-((4-(3,3,6-trimethyl-2,3-dihydro-1H-pyrrolo[3,2-b]pyridin-1-yl)-1,3,5-triazin-2-yl)amino)phenyl)acrylamide]	27.7	9.5	47.7
C=CC(=O)Nc1cc(Nc2cc(N3CC(C)(C)c4nc(C)ccc43)ccn2)c(OC)cc1N(C)CCN(C)C [Example 2, N-(2-((2-(dimethylamino)ethyl) (methyl)amino)-4-methoxy-5-((4-(3,3,5-trimethyl-2,3-dihydro-1H-pyrrolo[3,2-b]pyridin-1-yl)pyridin-2-yl)amino)phenyl)acrylamide]	97.9	60.4	1070
C=CC(=O)Nc1cc(Nc2ncnc(N3CC(C)(C)c4nc(C)ccc43)n2)c(OC(C)C)nc1N(C)CCN(C)C [Example 48, N-(2-((2-(dimethylamino)ethyl) (methyl)amino)-6-isopropoxy-5-((4-(3,3,5-trimethyl-2,3-dihydro-1H-pyrrolo[3,2-b]pyridin-1-yl)-1,3,5-triazin-2-yl)amino)pyridin-3-yl) acrylamide]	9.1	23.7	66
C=CC(=O)Nc1cc(Nc2ncnc(N3CC(C)(C)c4nc(C)c(C)cc43)n2)c(OC)cc1N(C)CCN(C)C [Example 20, N-(2-((2-(dimethylamino)ethyl) (methyl)amino)-4-methoxy-5-((4-(3,3,5,6-tetramethyl-2,3-dihydro-1H-pyrrolo[3,2-b]pyridin-1-yl)-1,3,5-triazin-2-yl)amino)phenyl)acrylamide]	14	2.9	15.2
